Data as given in patent publication US20230279024A1, “TRIAZINE COMPOUND AND COMPOSITION AND USE THEREOF” (BEIJING FINDCURE BIOSCIENCES, LTD., priority 2020, published 2023).

How the values were obtained:
[1] = target: AXL (h) kinase (Homo sapiens (Human), UniProt P30530); assay: AXL (h) kinase activity test (EZ Reader mobility shift, FLPeptide30); type: biochemical; details: ATP 100 μM, AXL 1 nM
Protocol: The effect of the disclosed compounds as protein kinase inhibitors can be evaluated by the following experiments. The AXL (h) kinase activity of the compounds of the invention is tested by the following methods:
Reagents used in the experiment were AXL (Carna Bioscience, Cat No.: 08-107) and FLPeptide30 (PerkinElmer, Cat No.: 760430). The instruments involved were thermotank (Thermo Scientific), oscillator (QILINBEIER), EZ Reader (PerkinElmer, Cat No.: 122919), Non-contact stage pipetting system (Labcyte Inc., Cat No.: Echo 550), and non-contact nanoliter pipetting system (TECAN, Cat No.: EVO200).
Compound dilution: 1) Dissolve the compound in DMSO to the appropriate concentration; 2) Using TECAN EVO200 to dilute 10 concentrations in 384 microplates by three times gradient, the highest concentration is 1 mM; Echo550 was used to transfer 20 nL solution from the dilution plate to the test plate.
2) Add 15 μL solution 1 to each well of the test plate and incubate at room temperature for 30 minutes.
4) Add 5 μL solution 2 to start the reaction, and the final volume of each well is 20 μL.
5) Incubated at 25° C. for 90 min, and then added 75 μL stop solution (containing 0.5 M EDTA) to terminate the reaction.
6) The sample of each well was analyzed using EZ reader.
1) Based on the measured conversion rate (CR), the Remaining Activity (%) of the kinase was calculated according to the following function:
2) XLFit (Equation 201) software was used to fit IC50.
The above methods can be used to obtain the inhibitory IC50 and/or inhibitory constant Ki.

[2] = tested on: Ba/F3 AXL cells; assay: Cell activity test: growth inhibition of Ba/F3 AXL cell line (CTG, 72 h); type: cell-based; details: Mus musculus, BaF3
Protocol: This experiment was conducted by detecting the inhibitory effect of compounds on the growth of Ba/F3 AXL cell line and Ba/F3 parental cell line. Cells in logarithmic growth stage were harvested and counted by platelet counter. Trypan blue rejection method was used to detect cell viability to ensure that the cell viability was above 90%. Adjust cell concentration; 90 μL cell suspension was added to 96-well plates, respectively; Cells in 96-well plates were cultured overnight at 37° C., 5% CO2 and 95% humidity. A 10-fold drug solution was prepared, with the highest concentration of 10 μM, and a total of 9 concentrations were diluted at 3.16 times the ratio. 10 μL drug solution was added to each well of the 96-well plate inoculated with cells, and three wells were set for each drug concentration; 96-well plates were incubated at 37° C., 5% CO2 and 95% humidity for 72 h, and CTG analysis was performed. Thaw the CTG reagent and balance the cell plates to room temperature for 30 minutes. Add the same volume of CTG solution to each well and vibrate on a fixed-rail shaker for 5 minutes to crack the cells. Place the cell plates at room temperature for 20 minutes to stabilize the cold light signal and read the cold light value. The GraphPad Prism 5.0 software was used to analyze the data, and the nonlinear S-curve regression was used to fit the data to obtain the dose-effect curve, and the IC50 value was calculated accordingly. Cell survival rate (%)=(Lum drug to be tested −Lum culture medium control)/(Lum cell control−Lum culture medium control)×100%.

Chain of AXL (h) kinase (P30530 473-894): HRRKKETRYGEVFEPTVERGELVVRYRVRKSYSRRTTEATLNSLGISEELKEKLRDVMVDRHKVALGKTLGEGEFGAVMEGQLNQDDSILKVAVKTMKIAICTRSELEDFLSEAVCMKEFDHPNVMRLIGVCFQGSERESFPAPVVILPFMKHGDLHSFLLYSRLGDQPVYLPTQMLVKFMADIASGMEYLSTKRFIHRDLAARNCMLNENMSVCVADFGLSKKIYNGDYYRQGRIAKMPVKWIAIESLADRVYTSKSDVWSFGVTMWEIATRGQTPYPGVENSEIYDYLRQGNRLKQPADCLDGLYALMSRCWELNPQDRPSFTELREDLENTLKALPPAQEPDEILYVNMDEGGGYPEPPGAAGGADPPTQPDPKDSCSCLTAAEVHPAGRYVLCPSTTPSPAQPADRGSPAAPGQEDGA

| SMILES | IC50 [1] [nM] | IC50 [2] [nM] |
| --- | --- | --- |
| Nc1ncnn2c(C3CCN(C(=O)C4CC4)CC3)cc(-c3ccc(NC(=O)c4c5n(n(-c6ccncc6)c4=O)CCCC5)cc3)c12 [example 44] | 50 to 100 |  |
| [2H][C@]1(O)CC[C@H](c2cc(-c3ccc(NC(=O)c4c5n(n(-c6ccccc6)c4=O)CCOC5)cc3F)c3c(N)ncnn32)CC1 [example 33, N-(4-(4-amino-7-((1r,4r)-4-hydroxycyclohexyl-4-d)pyrrolo[2,1-f][1,2,4]triazin-5-yl)-3-fluorophenyl)-2-oxo-1-phenyl-2,4,6,7-tetrahydro-1H-pyrazolo[5,1-c][1,4]oxazine-3-carboxamide] | 5 to 50 |  |
| Nc1ncnn2c1c(-c1ccc(NC(=O)c3c4n(n(-c5ccccn5)c3=O)CCOC4)cc1)cc2[C@H]1CC[C@H](O)CC1 [example 32, N-(4-(4-amino-7-((1r,4r)-4-hydroxycyclohexyl)pyrrolo[2,1-f][1,2,4]triazin-5-yl)phenyl)-2-oxo-1-(pyridin-2-yl)-2,4,6,7-tetrahydro-1H-pyrazolo[5,1-c][1,4]oxazine-3-carboxamide] | < 5 |  |
| CC(C)(F)C(=O)N1CCC(c2cc(-c3ccc(NC(=O)c4c5n(n(-c6ccccn6)c4=O)CCCC5)cc3)c3c(N)ncnn23)CC1 [example 25, N-(4-(4-amino-7-(1-(2-fluoro-2-methylpropanoyl)piperidin-4-yl)pyrrolo[2,1-f][1,2,4]triazin-5-yl)phenyl)-2-oxo-1-(pyridin-2-yl)-1,2,4,5,6,7-hexahydropyrazolo[1,5-a]pyridine-3-carboxamide] | 5 to 50 | < 5 |
| CC(C)(O)C(=O)N1CCC(c2cc(-c3ccc(NC(=O)c4c5n(n(-c6ccccn6)c4=O)CCOC5)cc3F)c3c(N)ncnn23)CC1 [example 14, N-(4-(4-amino-7-(1-(2-hydroxy-2-methylpropanoyl)piperidin-4-yl)pyrrolo[2,1-f][1,2,4]triazin-5-yl)-3-fluorophenyl)-2-oxo-1-(pyridin-2-yl)-2,4,6,7-tetrahydro-1H-pyrazolo[5,1-c][1,4]oxazine-3-carboxamide] | 50 to 100 | 5 to 50 |
| Nc1ncnn2c(C3CCN(C(=O)C4CCC4)CC3)cc(-c3ccc(NC(=O)c4c5n(n(-c6ccccn6)c4=O)CCC5)cc3)c12 [example 40] | > 100 |  |
| CC(C)C(=O)N1CCC(c2cc(-c3ccc(NC(=O)c4c5n(n(-c6ccccn6)c4=O)CCOC5)cc3F)c3c(N)ncnn23)CC1 [example 9, N-(4-(4-amino-7-(1-isobutyrylpiperidin-4-yl)pyrrolo[2,1-f][1,2,4]triazin-5-yl)-3-fluorophenyl)-2-oxo-1-(pyridin-2-yl)-2,4,6,7-tetrahydro-1H-pyrazolo[5,1-c][1,4]oxazine-3-carboxamide] | 5 to 50 | 5 to 50 |
| Nc1ncnn2c(C3CCNCC3)cc(-c3ccc(NC(=O)c4c5n(n(-c6ccccc6)c4=O)CCC5)cc3)c12 [example 5, N-(4-(4-amino-7-(piperidin-4-yl)pyrrolo[2,1-f][1,2,4]triazin-5-yl)phenyl)-2-oxo-1-phenyl-2,4,5,6-tetrahydro-1H-pyrrolo[1,2-b]pyrazole-3-carboxamide] | > 100 | > 100 |
| Nc1ncnn2c(C3CCN(C(=O)C4CC4)CC3)cc(-c3ccc(NC(=O)c4c5n(n(-c6cccnc6)c4=O)CCCC5)cc3)c12 [example 49] | 5 to 50 | 5 to 50 |
| Nc1ncnn2c(C3CCC(O)CC3)cc(-c3ccc(NC(=O)c4c5n(n(-c6ccccc6)c4=O)CCOC5)nc3)c12 (centres unmarked) [example 23] |  | < 5 |
| Cn1cc(-n2c(=O)c(C(=O)Nc3ccc(-c4cc(C5CCN(C(=O)C6CC6)CC5)n5ncnc(N)c45)cc3)c3n2CCCC3)cn1 [example 47] | 5 to 50 | < 5 |
| CC(C)(F)C(=O)N1CCC(c2cc(-c3ccc(NC(=O)c4c5n(n(-c6ccccn6)c4=O)CCOC5)cc3F)c3c(N)ncnn23)CC1 [example 27, N-(4-(4-amino-7-(1-(2-fluoro-2-methylpropanoyl)piperidin-4-yl)pyrrolo[2,1-f][1,2,4]triazin-5-yl)-3-fluorophenyl)-2-oxo-1-(pyridin-2-yl)-2,4,6,7-tetrahydro-1H-pyrazolo[5,1-c][1,4]oxazine-3-carboxamide] | 50 to 100 | 5 to 50 |
| Nc1ncnn2c1c(-c1ccc(NC(=O)c3c4n(n(-c5ccccc5)c3=O)CCCC4)cc1F)cc2[C@H]1CC[C@H](O)CC1 [example 24, N-(4-(4-amino-7-((1r,4r)-4-hydroxycyclohexyl)pyrrolo[2,1-f][1,2,4]triazin-5-yl)-3-fluorophenyl)-2-oxo-1-phenyl-1,2,4,5,6,7-hexahydropyrazolo[1,5-a]pyridine-3-carboxamide] |  | < 5 |
| CC(C)(O)C(=O)N1CCC(c2cc(-c3ccc(NC(=O)c4c5n(n(-c6ccccn6)c4=O)CCOC5)cc3)c3c(N)ncnn23)CC1 [example 15, N-(4-(4-amino-7-(1-(2-hydroxy-2-methylpropanoyl)piperidin-4-yl)pyrrolo[2,1-f][1,2,4]triazin-5-yl)phenyl)-2-oxo-1-(pyridin-2-yl)-2,4,6,7-tetrahydro-1H-pyrazolo[5,1-c][1,4]oxazine-3-carboxamide] | 5 to 50 | 5 to 50 |
| CC(C)C(=O)N1CCC(c2cc(-c3ccc(NC(=O)c4c5n(n(-c6ccccc6)c4=O)CCOC5)nc3)c3c(N)ncnn23)CC1 [example 35, N-(5-(4-amino-7-(1-isobutyrylpiperidin-4-yl)pyrrolo[2,1-f][1,2,4]triazin-5-yl)pyridin-2-yl)-2-oxo-1-phenyl-2,4,6,7-tetrahydro-1H-pyrazolo[5,1-c][1,4]oxazine-3-carboxamide] |  | < 5 |
| Nc1ncnn2c(C3CCN(C(=O)C4CC4)CC3)cc(-c3ccc(NC(=O)c4c5n(n(-c6ccccn6)c4=O)CCOC5)cc3F)c12 [example 28, N-(4-(4-amino-7-(1-(cyclopropanecarbonyl)piperidin-4-yl)pyrrolo[2,1-f][1,2,4]triazin-5-yl)-3-fluorophenyl)-2-oxo-1-(pyridin-2-yl)-2,4,6,7-tetrahydro-1H-pyrazolo[5,1-c][1,4]oxazine-3-carboxamide] |  | 5 to 50 |
| CC(C)(F)C(=O)N1CCC(c2cc(-c3ccc(NC(=O)c4c5n(n(-c6cccnn6)c4=O)CCCC5)cc3)c3c(N)ncnn23)CC1 [example 52] | 5 to 50 |  |
| CC(C)(F)C(=O)N1CCC(c2cc(-c3ccc(NC(=O)c4c5n(n(-c6ccccn6)c4=O)CCOC5)cc3)c3c(N)ncnn23)CC1 [example 12, N-(4-(4-amino-7-(1-(2-fluoro-2-methylpropanoyl)piperidin-4-yl)pyrrolo[2,1-f][1,2,4]triazin-5-yl)phenyl)-2-oxo-1-(pyridin-2-yl)-2,4,6,7-tetrahydro-1H-pyrazolo[5,1-c][1,4]oxazine-3-carboxamide] |  | 5 to 50 |
| CC(C)C(=O)N1CCC(c2cc(-c3ccc(NC(=O)c4c5n(n(-c6ccccn6)c4=O)CCCC5)cc3F)c3c(N)ncnn23)CC1 [example 17, N-(4-(4-amino-7-(1-isobutyrylpiperidin-4-yl)pyrrolo[2,1-f][1,2,4]triazin-5-yl)-3-fluorophenyl)-2-oxo-1-(pyridin-2-yl)-1,2,4,5,6,7-hexahydropyrazolo[1,5-a]pyridine-3-carboxamide] |  | 5 to 50 |
| Nc1ncnn2c(C3CCC(O)CC3)cc(-c3ccc(NC(=O)c4c5n(n(-c6ccccn6)c4=O)CCOC5)cc3)c12 (centres unmarked) [example 32, N-(4-(4-amino-7-((1r,4r)-4-hydroxycyclohexyl)pyrrolo[2,1-f][1,2,4]triazin-5-yl)phenyl)-2-oxo-1-(pyridin-2-yl)-2,4,6,7-tetrahydro-1H-pyrazolo[5,1-c][1,4]oxazine-3-carboxamide] |  | 5 to 50 |
| CC(C)C(=O)N1CCC(c2cc(-c3ccc(NC(=O)c4c5n(n(-c6ccccc6)c4=O)CCC5)cc3)c3c(N)ncnn23)CC1 [example 6, N-(4-(4-amino-7-(1-isobutyrylpiperidin-4-yl)pyrrolo[2,1-f][1,2,4]triazin-5-yl)phenyl)-2-oxo-1-phenyl-2,4,5,6-tetrahydro-1H-pyrrolo[1,2-b]pyrazole-3-carboxamide] |  | < 5 |
